The values that follow are results of earlier work, collected in patent US20030170318A1, “Fluoride compositions and uses thereof” (priority 2000, published 2003).

Data set [1] concerns normal cells. The settings on record: pre, simultaneous and post-treatments; Trenimon-induced chromosomal aberrations.
Data set [2] concerns Ras/RasGAP complex. The settings on record: fluoride salt added to mixed Ras and GAP; free fluoride needed in solution.
Data set [3] deals with mutant RhoGAP. The settings on record: arginine to alanine mutant, in the presence of aluminum fluoride.
The subject of data set [4] is osteosarcoma cell line UMR 106. To be noted: 0.5 mM fluoride, UMR 106 cultures.
Data set [5] concerns human leukemia (HL-60) cells.
The subject of data set [6] is Drosophila. To be noted: mutation induced by Trenimon and 1-phenyl-3,3-dimethyltriazene.
For data set [7] the following is noted: children.

With `[F-].[Na+]` [sodium fluoride], in data set [1], the “frequency of undamaged mitosis” value is recorded as “significantly enhanced”.
In the case of `[F-].[F-].[Mg+2]` [magnesium fluoride], the Ras/RasGAP complex formation result in data set [2] is “readily formed”.
In the case of aluminum fluoride, the Ras/RasGAP complex formation entry in data set [2] is “readily formed”. Besides, in data set [3], the “hydrolysis of RhoGTP to RhoGDP by mutant RhoGAP” value was “as effective as normal RhoGAP”.
In the case of `[Be+2].[F-].[F-]` [beryllium fluoride, reference compound], the Ras/RasGAP complex formation result in data set [2] is given as “readily formed”.
For the compound `F` [fluoride], the “toxic blood plasma fluoride level” value was “about 15 μM”. Also, in data set [4], the apoptosis entry is on record as “induction of apoptosis” and the cell proliferation entry is recorded as “decrease in cell proliferation”. For the same compound, the cell death result in data set [5] is reported as “causes cell death”. In addition, the “caspase-3 activation leading to apoptosis” value in data set [5] (cleaves poly(ADP-ribose) polymerase) is “activation of caspase-3”. Besides, the antimutagenic effect result in data set [6] is reported as “strong antimutagenic effect”. Besides, in data set [7], the “fluoride retained of all fluoride consumed” value is on record as “twenty”.
